# Laboratory results published in patent US20020015940A1, “Method of gene expression screening” (priority 2000, published 2002).
# Experiments:
# E. coli = assay: toxicity response in the microbial system; type: cell-based; conditions: system of the present invention; consistent with mammalian cell studies
# Experimental: (§1) 2.0% cultures were grown from saturated overnight cultures at […] with shaking at 260 rpm for 3 hours. A 4.0% inoculum was mixed with […] top agar (10 g/L NaCl, 5.0 g/L yeast extract, 10 g/L tryptone, 7.0 g/L agar) and 10 ml was layered on 150 mm petri dishes containing LB and ampicillin. 10 μl of each drug to be tested was spotted onto the plate and incubated at 35° C. overnight. Colonies were screened when plated onto LB plates containing compounds that are known to activate oxidative stress genes, paraquat and hydrogen peroxide.
# (§2) As the drug diffuses through the media, it created a concentration gradient.
# [1] = system: E. coli harboring the stress probes (soxS and sodA); assay: high throughput 96-well dose-response of stress probes; type: cell-based; conditions: for promoter probes turned on (mode of action): FIG. 5A and 5B
# Experimental: 4. 0% cultures of E. coli harboring the stress probes were grown from a saturated overnight culture in 250 ml shake flasks containing 25 ml LB media and 100 μg/ml ampicillin at 35° C. with shaking at 260 rpm until the optical density reached 0.8 at 600 nm. 100 μl aliquots of culture were added to each well of a 96-well plate, along with 10 μl of various concentrations of the drug to be tested and incubated overnight. Experiments were run in duplicate. Fluorescence intensity and optical density measurements were taken using a Wallac 1420 VICTOR multilabel counter.
# To test whether the procedure of Example 4 would work in a quantitative high throughput format, an experiment was conducted where the anti-tumor drug DNR was serially diluted and dose-response tested in a 96-well plate. For comparison, a similar experiment was conducted with paraquat.
# [2] = system: pCRA11, sodA promoter probe construct; assay: agar plate spotting, zone of induction (green halo); type: cell-based, E. coli; conditions: higher and varied concentrations of drugs spotted on plate, overnight
# Experimental: as §1, §2
# acnA promoter probe = assay: stress probe-GFP fusion fluorescence after oxidative stress; type: cell-based, E. coli; conditions: varying concentrations of stressor, 4 hours post-stress
# From the text: (§3) Using GenBank to obtain the genomic sequence for each of the oxidative stress response genes, PCR primers are designed to amplify the promoter region. Generally the target for amplification was approximately 300 base pairs and encompasses the sequence upstream from the native translational start site. […] The entire promoter region flanked by incorporated restriction sites was cloned in frame with GFP on a plasmid. The stress probes were then transformed into E. coli.
# (§4) Cells containing each stress probe-GFP fusion were cultured to early log phase, stressed with varying concentrations of paraquat or H2O2, and the fluorescence intensity measured at 4 hours post-stress. Due to the lethality of the higher concentrations of stresses, dividing by optical density (OD) normalized the fluorescence intensity values.
# zwf promoter probe = assay: as above; type: cell-based, E. coli; conditions: varying concentrations of stressor, 4 hours post-stress
# From the text: as §3, §4
# dps promoter probe = assay: as above; type: cell-based, E. coli; conditions: varying concentrations of stressor, 4 hours post-stress
# From the text: as §3, §4
# recA promoter probe = assay: as above; type: cell-based, E. coli; conditions: varying concentrations of stressor, 4 hours post-stress
# From the text: as §3, §4
# sodA promoter probe = assay: as above; type: cell-based, E. coli; conditions: varying concentrations of stressor, 4 hours post-stress
# From the text: as §3, §4
# sodA-GFP stress probe = assay: rate of change of GFP signal; type: cell-based, E. coli; conditions: continuous stress by bolus of paraquat, FIG. 6
# From the text: The rate of change of the GFP signal measures the rate of the stress protein induction. This experiment compares the response of the sodA promoter to stresses in the form of a bolus of paraquat in one culture and a transient exposure to hyperoxia in another. A control culture consisting of uninduced sodA:GFP was included for comparison. […] An uninduced culture was included for comparison purposes.
# The disadvantages of GFP as a reporter gene are its lag time for fluorescence (approximately 90 minutes) and extraordinary stability. One way to compensate for these is to measure the rate of change of the GFP fluorescence, which is possible using an LED-based sensor that permits continuous in situ measurements. The cell specific rate of change of GFP normalized to optical density is then a measure of the rate of gene expression of the stress protein.
smiles,measurement,setting,value
"CCOC(=O)NC1=C(N2CC2)C(=O)C(NC(=O)OCC)=C(N2CC2)C1=O [AZQ, diaziquone]",rank order of toxicity response,E. coli,"MeDZQ, DZQ, and AZQ, were ranked in decreasing order of toxicity response"
"COc1cccc2c1C(=O)c1c(O)c3c(c(O)c1C2=O)C[C@@](O)(C(C)=O)C[C@@H]3O[C@H]1C[C@H](N)[C@H](O)[C@H](C)O1 [DNR, daunorubicin]",promoter probes turned on (mode of action),[1]; 96-well plate,turning on soxS and sodA
same,toxicity to cells beyond the concentration of maximal response,"[1]; above 20 μM, 96-well plate",becomes toxic and kills cells
same,concentration at which maximal response is observed,"[1]; serial dilution in 96-well plate, overnight, FIG. 5A",20 µM
O=C1C=C(N2CC2)C(=O)C=C1N1CC1 [DZQ],rank order of toxicity response,E. coli,"MeDZQ, DZQ, and AZQ, were ranked in decreasing order of toxicity response"
"COc1cccc2c1C(=O)c1c(O)c3c(c(O)c1C2=O)C[C@@](O)(C(=O)CO)C[C@@H]3O[C@H]1C[C@H](N)[C@H](O)[C@H](C)O1 [Doxorubicin, doxorubicin]",induction of sodA promoter probe compared with induction of recA,[2],stronger induction of sodA than its induction of recA
"CC1=C(N2CC2)C(=O)C(C)=C(N2CC2)C1=O [MeDZQ, methyl diaziridinequinone]",rank order of toxicity response,E. coli,"MeDZQ, DZQ, and AZQ, were ranked in decreasing order of toxicity response"
OO [hydrogen peroxide],"fluorescence intensity normalized by optical density, acnA promoter probe",acnA promoter probe,no inducible response
same,"fluorescence intensity normalized by optical density, zwf promoter probe",zwf promoter probe,no inducible response
same,"fluorescence intensity normalized by optical density, dps promoter probe",dps promoter probe,dose dependent response
same,"fluorescence intensity normalized by optical density, recA promoter probe",recA promoter probe,dose dependent response
same,"fluorescence intensity normalized by optical density, sodA promoter probe",sodA promoter probe,no inducible response
C[n+]1ccc(-c2cc[n+](C)cc2)cc1 [paraquat],"fluorescence intensity normalized by optical density, acnA promoter probe",acnA promoter probe,dose dependent response
same,"fluorescence intensity normalized by optical density, zwf promoter probe",zwf promoter probe,dose dependent response
same,"fluorescence intensity normalized by optical density, dps promoter probe",dps promoter probe,do not show a dose dependent response and are only inducible when exposed to higher paraquat concentrations
same,"fluorescence intensity normalized by optical density, recA promoter probe",recA promoter probe,do not show a dose dependent response and are only inducible when exposed to higher paraquat concentrations
same,"fluorescence intensity normalized by optical density, sodA promoter probe",sodA promoter probe,dose dependent response
same,promoter probes turned on (mode of action),[1]; 96-well plate,turning on soxS and sodA
same,shape of dose response,"[1]; serial dilution in 96-well plate, overnight, FIG. 5B",monotonically increasing response
same,rate of sodA expression (GFP derivative),sodA-GFP stress probe,continual gene expression of sodA
